Data on three molecules can be found in patent publication US12624050B2, “Three fused ring derivative-containing salt or crystal form and pharmaceutical composition thereof” (Shanghai Hansoh Biomedical Co., Ltd., priority 2019, dated 2026).

pIC50: −log10 of the molar value.

Data set [1] deals with SD rats. Put plainly: Toxicity test of a 7-day repeatedly intragastric administration in SD rats. The note with it: 7 days; for tolerance compared with GDC-0077: SD rats, 10, 30 and 60 mg/kg once/day. The data set is classed as in vivo. An excerpt: (§1) • Test compound 1: GDC-0077 • Test compound 2: the compounds of Example 22 and Example 62 3.2.2 Vehicle • Name: 20% aqueousSBE-β-CD (Captisol) solution 3.2.3 Animal Information • Species & strains: Sprague-Dawley (SD) rat • Animal grade: SPF grade • Number and sex of animals: 160 rats, half male and half female. 3.2.4 Instruments • The ADVIA®2120 series Hematology System with Autoslide was used for blood cell counting; • The SYSMEX CA-500 Coagulation Analyzer was used for the detection of coagulation function indicators; • The TBA-120FR Automated Biochemical Analyzer was used for the detection of blood biochemical indicators; • The Easylyte Electrolyte Analyzer was used for the detection of electrolytes; • The liquid mass spectrometry detector model API4000; • The electron spray ionization (ESI) positive ion mode and column type Agilent ZORBAX XDB-C18 (3.5 μm, 2.1×50 mm) were used for bioanalytical detection of plasma samples. 3.3 Experimental Method • 1) In the experiment, 160 rats (80 rats/sex) were divided into 20 groups according to their sex and body weight, wherein 100 rats were used for toxicology study (groups 1 to 10, 5 rats/sex/group) and 60 rats were used for toxicokinetic study (groups 11 to 20, 3 rats/sex/group); • 2) As the vehicle control group, the animals in groups 1 and 11 were intragastrically administered 20% aqueous SBE-β-CD (Captisol) solution; • 3) The animals in groups 2 and 12, groups 3 and 13, and groups 4 and 14 were intragastrically administered 10, 30 and 60 mg/kg of GDC-0077, respectively; • 4) The animals in groups 5 and 15, groups 6 and 16, and groups 7 and 17 were intragastrically administered 10, 30 and 60 mg/kg of the compound of Example 22, respectively; • 5) The animals in groups 8 and 18, groups 9 and 19, groups 10 and 20 were intragastrically administered 10, 30 and 60 mg/kg of the compound of Example 62, respectively; • 5) The animals were administered once a day for 7 consecutive days (the animals in groups 7, 17, 10 and 20 were administered for 6 consecutive days). • 6) The administration volume was 10 mL/kg. • 7) During the experiment, items such as clinical observation, body weight, food intake, clinicopathological indicators (blood cell count, coagulation function, blood biochemistry), toxicokinetics and the like were studied. • 8) All animals were euthanized on Day 8 (the animals in groups 7, 10, 17 and 20 were euthanized after administration on Day 6). • 9) During the experiment, gross anatomical observation was performed on the animals in groups 1 to 10, animals in groups 17 and 20, and dead animals (including animals in toxicological study). Histopathological examination was performed on abnormal tissues, gastrointestinal tissues (such as colon, cecum) and immune tissues (such as thymus). […]

A short description of data set [2]: Toxicokinetics in the 7-day repeated intragastric administration study in SD rats. The data set is classed as in vivo, Sprague-Dawley (SD) rat.
Excerpt: as §1

The nature of data set [3]: Pharmacokinetic (PK) assay in mice, single intragastric administration. The data set is classed as in vivo. To be noted: mouse, po, Balb/c male mice, 5 mg/kg, plasma; for AUC(0-t): read-out: Area under the curve AUC0-t; for AUC(0-inf): read-out: Area under the curve AUC0-∞; for half-life: read-out: Half life t1/2 (converted); for MRT: read-out: Mean residence time MRT; for Tmax: read-out: Peak time tmax; for Cmax: read-out: Plasma concentration Cmax. Here is the method:
The pharmacokinetic assay of the preferred compounds of the examples of the present invention in mice was carried out in Balb/c male mice (Shanghai Jiesijie Laboratory Animal Co., Ltd.).
5.1 Administration route: single intragastric administration.
5.2 Administration dose: 5 mg/10 ml/kg (body weight).
5.3 Formulation: the compound was dissolved in 0.5% CMC-Na by ultrasound to obtain a clear solution or a homogeneous suspension.
5.4 Sampling points: 0.5, 1, 2, 4, 6, 8 and 24 hours after administration.
• 1) 0.1 mL of orbital blood was collected and placed in a K2-EDTA test tube, centrifuged at 1000 to 3000×g at room temperature for 5 to 20 min to separate the plasma, which was then stored at −80° C. • 2) 160 uL of acetonitrile was added to 40 uL of plasma sample for precipitation. After mixing, the sample was centrifuged at 500 to 2000×g for 5 to 20 minutes. • 3) 100 uL of the supernatant after processing was taken and analyzed by LC/MS/MS assay to determine the concentrations of the example compound. 5.6 LC-MS/MS Assay: • Liquid chromatography condition: Shimadzu LC-20AD pump • Mass spectrometry condition: AB Sciex API 4000 mass spectrometer • Chromatographic column: phenomenex Gemiu 5 μm C18 50×4.6 mm • Mobile phase: solution A was 0.1% aqueous formic acid solution, and solution B was acetonitrile • Flow rate: 0.8 mL/min • Elution time: 0 to 4 minutes, gradient elution 5.7 Pharmacokinetics: […]

Data set [4] deals with T1, PI3Kα (Homo sapiens, UniProt P42336).
T1 construct: purchased Promega #V1721
T1 sequence (P42336 whole entry): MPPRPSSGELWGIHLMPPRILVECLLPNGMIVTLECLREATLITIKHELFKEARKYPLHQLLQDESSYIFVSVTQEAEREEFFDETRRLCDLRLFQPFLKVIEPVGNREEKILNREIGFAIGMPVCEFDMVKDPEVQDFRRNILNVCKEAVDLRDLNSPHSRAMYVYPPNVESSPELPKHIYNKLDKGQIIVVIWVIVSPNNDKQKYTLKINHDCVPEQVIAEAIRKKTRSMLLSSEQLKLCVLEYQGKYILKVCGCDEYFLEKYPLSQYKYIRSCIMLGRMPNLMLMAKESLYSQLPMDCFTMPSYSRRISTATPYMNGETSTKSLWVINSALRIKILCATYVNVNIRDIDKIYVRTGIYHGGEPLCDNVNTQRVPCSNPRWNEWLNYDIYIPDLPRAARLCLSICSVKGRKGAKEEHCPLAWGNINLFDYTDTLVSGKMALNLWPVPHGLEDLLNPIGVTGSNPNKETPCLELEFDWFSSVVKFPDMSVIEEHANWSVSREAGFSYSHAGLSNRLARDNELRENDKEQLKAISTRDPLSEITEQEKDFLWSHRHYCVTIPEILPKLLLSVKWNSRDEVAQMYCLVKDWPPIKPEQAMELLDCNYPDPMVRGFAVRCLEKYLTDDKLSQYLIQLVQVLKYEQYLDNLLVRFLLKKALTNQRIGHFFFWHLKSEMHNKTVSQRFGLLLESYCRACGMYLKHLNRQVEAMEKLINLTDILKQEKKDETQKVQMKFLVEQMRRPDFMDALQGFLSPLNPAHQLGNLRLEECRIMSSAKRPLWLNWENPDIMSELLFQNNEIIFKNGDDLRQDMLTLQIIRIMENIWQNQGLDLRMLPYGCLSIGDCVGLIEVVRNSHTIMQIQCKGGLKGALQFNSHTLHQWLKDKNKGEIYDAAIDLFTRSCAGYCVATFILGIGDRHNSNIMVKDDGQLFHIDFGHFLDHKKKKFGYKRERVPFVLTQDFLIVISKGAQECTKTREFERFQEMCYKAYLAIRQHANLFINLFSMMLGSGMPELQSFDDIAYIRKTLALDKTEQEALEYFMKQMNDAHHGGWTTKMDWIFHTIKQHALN
T1 sequence (P27986 whole entry partner): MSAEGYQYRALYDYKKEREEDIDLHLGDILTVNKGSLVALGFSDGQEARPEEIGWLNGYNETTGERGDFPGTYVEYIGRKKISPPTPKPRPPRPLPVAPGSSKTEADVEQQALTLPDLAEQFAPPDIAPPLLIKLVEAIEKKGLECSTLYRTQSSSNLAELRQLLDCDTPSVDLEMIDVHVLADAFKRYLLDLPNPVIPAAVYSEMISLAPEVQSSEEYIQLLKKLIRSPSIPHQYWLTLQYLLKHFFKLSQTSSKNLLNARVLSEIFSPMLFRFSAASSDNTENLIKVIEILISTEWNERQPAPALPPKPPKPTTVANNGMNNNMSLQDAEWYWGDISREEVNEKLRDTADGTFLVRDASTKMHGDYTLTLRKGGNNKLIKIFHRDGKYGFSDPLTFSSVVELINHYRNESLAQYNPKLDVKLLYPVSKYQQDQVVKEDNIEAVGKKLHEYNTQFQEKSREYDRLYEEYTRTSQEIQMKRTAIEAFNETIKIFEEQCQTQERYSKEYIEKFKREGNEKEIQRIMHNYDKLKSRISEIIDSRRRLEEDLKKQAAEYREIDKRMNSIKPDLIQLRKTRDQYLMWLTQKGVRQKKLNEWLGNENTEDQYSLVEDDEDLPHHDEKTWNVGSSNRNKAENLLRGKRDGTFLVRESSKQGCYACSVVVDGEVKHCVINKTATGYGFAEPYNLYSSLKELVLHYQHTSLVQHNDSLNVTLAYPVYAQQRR
Put plainly: ADP-Glo Lipid Kinase Assay, PI3Kα kinase activity. The data set is classed as biochemical. Here is the method:
In this experiment, ADP-Glo Lipid Kinase Assay (Promega #V9102) from Promega was used. The lipid kinases PI3Kα/β/γ/δ catalyzed the ATP-to-ADP reaction in the presence of the substrate PIP2:3PS and ATP. The lipid kinase activity was characterized by measuring the ADP content in the reaction, and the half inhibition concentrations IC50 of the compounds on PI3Kα/β/γ/δ kinase activity were obtained.
Kinase reactions were carried out in white 384-well plates (Perkin Elmer #6007299). 2 μL of the compound of various concentrations diluted with ddH2O containing 1% DMSO was added to each well, and 2 μL of ddH2O containing 1% DMSO was added to positive control wells. […] After the reaction was carried out for 20 minutes at room temperature in the dark, the chemiluminescence was measured by BioTek Synergy H1 microplate reader.
The percentage inhibition data of the compound-treated well was calculated from positive control wells (DMSO control wells) and negative control wells (no kinase added) on the plate {% inhibition=100−[(test compound value−negative control value)]/(positive control value-negative control value)×100}. IC50 values were calculated using GraphPad prism and using a four-parameter nonlinear logistic formula to fit the data of different concentrations and corresponding percent inhibition.
A general note: ADP-Glo turns the ADP formed in a reaction into a luminescent signal.

Setting [5] is: doses of 10, 30 and 60 mg/kg once/day.

Regarding `C[C@H](Nc1ccc2c(c1)OCCn1cc(N3C(=O)SC[C@H]3C(F)F)nc1-2)C(N)=O` [Example 22, (S)-2-((2-((R)-4-(difluoromethyl)-2-oxothiazolidin-3-yl)-5,6-dihydrobenzo[f]imidazo[1,2-d][1,4]oxazepin-9-yl)amino)propionamide], the “tolerance compared with GDC-0077” value in data set [1] is “better than that of GDC-0077”. The same molecule registered a lethal dose in data set [1] (SD rats, intragastric once/day) of 60 mg/kg. Also, the “systemic exposure compared with GDC-0077 at the same dose” value in data set [2] was “significantly higher than that of GDC-0077”. In addition, the “Cmax and AUC(0-24 h) compared with GDC-0077” value in data set [2] (dose of 30 mg/kg) and in data set [2] (setting [5]) was “significantly higher than those of GDC-0077” throughout.
Usually MRT stands for a mean duration of stay, worked out from the concentration-time curve. What is called Tmax is the time from dosing to the highest level. Usually pIC50 stands for the negative decadic logarithm of the IC50, by convention in mol/L. Regarding `C[C@H](Nc1ccc2c(c1)N(C)CCn1cc(N3C(=O)OC[C@H]3C(F)F)nc1-2)C(N)=O` [Example 56, (S)-2-((2-((S)-4-(difluoromethyl)-2-oxooxazolidin-3-yl)-7-methyl-6,7-dihydro-5H-benzo[f]imidazo[1,2-d][1,4]diazoheptin-9-yl)amino)propionamide], in data set [3], the AUC(0-t) is 1350 ng·h/mL, the AUC(0-inf) was determined as 1360 ng·h/mL, the half-life is 96 min and the mean residence time MRT was 2.2 h. Also, in data set [3], the Tmax is 30 min and the Cmax came to 985 ng/mL. In data set [4], the pIC50 is 9.30.
On to `C[C@H](Nc1ccc2c(c1)SCCn1cc(N3C(=O)OC[C@H]3C(F)F)nc1-2)C(N)=O` [Example 62, (S)-2-((2-((S)-4-(difluoromethyl)-2-oxooxazolidin-3-yl)-5,6-dihydrobenzo[f]imidazo[1,2-d][1,4]thiazepin-9-yl)amino)propionamide], for which the “tolerance compared with GDC-0077” value in data set [1] is “better than that of GDC-0077”. Besides, the “Cmax and AUC(0-24 h) compared with GDC-0077” value in data set [2] (setting [5]) is “significantly higher than those of GDC-0077”. Besides, in data set [3], the AUC(0-t) turned out to be 3440 ng·h/mL, the AUC(0-inf) was found to be 3470 ng·h/mL, the half-life is 90 min and the mean residence time MRT turned out to be 2.8 h. Besides, in data set [3], the time of peak concentration (Tmax) worked out at 30 min and the Cmax amounted to 1250 ng/mL. Moreover, the pIC50 in data set [4] is 10.00.
